From patent publication US20210177952A1, “METHOD AND COMPOSITION FOR STIMULATING IMMUNE RESPONSE” (BeyondSpring Pharmaceuticals, Inc., priority 2018, published 2021)

Key:
[1] = type: in vivo, Mouse, C57BL6; settings: 15 mg/kg IP BID, subgroup I group 3, three animals
Description: Detailed Clinical Observations: Scheduled detailed clinical observations were not conducted on this study. Unscheduled clinical observations were made on mice flagged by trained personnel during daily moribundity/morbidity checks for any reason.
The remaining subgroups II-V, group 3 animals were dosed at 10 mg/kg (indicated as “*” in Tables 3-4 above). The experimental observations described below in this Example were focused on the lower dose (10-mg/kg) mice.

CD14^+ dendritic cells = test: FACS evaluation of dendritic cell maturation markers CD40, CD80, MHCII and CD86; type: cell-based, Human
Description: ISOLATION OF CD14^+ MONOCYTES FROM PBMCs: On Day 1 of the study, PBMC cells were obtained from a human donor according to (1a)-(1d) above. Monocytes were then isolated from these PBMCs on the same day (Day 1) according to steps (2a)-(2k) as follows: (2a) The number of the PBMC cells was determined. (2b) The cell suspension was centrifuged at 300×g for 10 minutes; and the supernatant was aspirated completely. (2c) The cell pellet was re-suspended in 80 μL of FACS buffer per 10^7 total cells. (2d) Per 10^7 total cells, 20 μL of CD14 MicroBeads were added. (2e) Mix well and incubate for 15 minutes in the refrigerator (2 to 8° C.). (2f) The cells were washed by adding 1 to 2 mL of FACS buffer per 10^7 cells and centrifuged at ×1500 rpm for 10 min. (2g) The cells were re-suspended up to 10^8 cells in 500 μL of FACS buffer. (2h) The column was placed in magnetic field of a suitable MACS Separator. (2i) The column was prepared by rinsing with 3 mL of FACS buffer. (2j) The cell suspension was applied onto the column. Unlabeled cells that pass through were collected and the column was washed for three times each with 3 mL of FACS buffer. Total effluent, which was the unlabeled cell fraction, was collected. Washing steps were performed by adding FACS buffer three times. New buffer was added only when the column reservoir became empty. (2k) The column was then removed from the separator and placed on a suitable collection tube. 5 mL of FACS buffer was pipetted onto the column. The magnetically labeled cells were immediately flushed out by firmly pushing the plunger into the column. This fraction represented the CD14 positive monocytes.
DIFFERENTIATION OF MONOCYTES INTO CD14^+ DENDRITIC CELLS: From the CD14 positive monocytes obtained from (2k), dendritic cells (DCs) were differentiated according to steps (2l)-(2p) as follows: (21) 5×10^6 cells were re-suspended per 5 mL of ImmunoCult™ DC Differentiation Medium and mixed well. Then 5 mL of the cell suspension was added to a T-25 cm^2 flask and the cells were incubated for 3 days at 37° C. and 5% CO2. (2m) Meanwhile, in parallel, the monocytes were treated with 3, 1, 0.3, 0.1, 0.01 and 0 μM plinabulin, respectively, in the wells of a 6-well plate and incubated for 3 days. (2n) On Day 4, the medium was removed from the T-25 cm^2 flask by pipetting and added to a 14-mL centrifuge tube. 5 mL of fresh ImmunoCult™ DC Differentiation Medium was quickly added to the culture flask. (2o) The 14 mL tube containing medium and cells (from step (2n)) was centrifuged at 300×g for 10 min. The supernatant was removed and discarded. Cells were resuspended in a small volume (i.e. 50 μL or up to 10% of the original volume) of fresh ImmunoCult™ DC Differentiation Medium and returned to the culture flask in order to save non-adherent or loosely adherent cells. The cells were then incubated at 37° C. for 2 days. (2p) Also on Day 4, 90% differentiation medium for the DCs were removed from the 6-well plate, and 90% fresh differentiation medium were added. The cells were treated with 3, 1, 0.3, 0.1, 0.01 and 0 μM plinabulin as stated above in (2m) (Study Arm #1). After another 2 days incubation, the dendritic cell maturation was evaluated by FACS for CD40, CD80, MHCII and CD86. The rest cells continued without treatment to steps (4a)-(4d) below for MLR assay. […]

[2] = treated during differentiation or maturation

With `CC(C)(C)c1[nH]cnc1/C=c1\[nH]c(=O)/c(=C/c2ccccc2)[nH]c1=O` [Plinabulin, (3Z,6Z)-3-Benzylidene-6-{[5-(2-methyl-2-propanyl)-1H-imidazol-4-yl]methylene}-2,5-piperazinedione] the “clinical observations within 1 day following test article administration” value [1] was “decreased activity, irregular breathing, dehydration, and body cold to touch”, the “CD86 expression on DCs” value (CD14^+ dendritic cells; cells treated during DC maturation (Study Arm #A2)) was “increased CD86 expression on DCs” and the “CD86 expression on DCs” value (CD14^+ dendritic cells; cells treated during differentiation from CD14 cells (Study Arm #A1)) was “increased CD86 expression on DCs”. The “CD40 expression on DCs” value (CD14^+ dendritic cells; [2]) was “no discernible increase”, the “CD80 expression on DCs” value (CD14^+ dendritic cells; [2]) was “no discernible increase” and the “MHCII expression on DCs” value (CD14^+ dendritic cells; [2]) was “no discernible increase”.
